According to the supplement of paper PMC10307832:

Assays:
Test in all cases: relative viability (nuclei count vs DMSO), 5 days (fraction); higher = more cells survive
[1] = compound: CC1=CN2C(=O)C=C(N=C2C(=C1)C(C)NC3=CC=CC=C3)N4CCOCC4 [TGX 221] + COc1cccc2cc(-c3nc([C@H]4CC[C@H](C(=O)O)CC4)n4ncnc(N)c34)[nH]c12 [OSI-027] (partner 0.5 µM)
Summary of the method: (§1)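 Values are medians from duplicate plates. Each reflects relative viability, defined as the nuclei count of treated wells over that of vehicle wells. Lung cancer cell lines in 1536-well plates were pin-tool dosed one day after seeding with one drug alone or with a fixed anchor-drug dose plus five library-drug doses (not always all listed) in √10 steps, then fixed, stained and imaged at 4× after 5 days.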

[2] = compound: C1=CC=C(C(=C1)C2=CC=C(C=C2)C3=CSC4=C3C(=C(C(=O)N4)C#N)O)O + Cc1cc(Nc2cc(N3CCN(C)CC3)nc(Sc3ccc(NC(=O)C4CC4)cc3)n2)n[nH]1 [Tozasertib] (partner 0.1 µM)
Summary of the method: as §1

[3] = compound: O=C(CCCCCCNC(=O)c1cnc(N(c2ccccc2)c2ccccc2)nc1)NO [Ricolinostat] + Nc1ncn([C@H]2C[C@H](O)[C@@H](CO)O2)c(=O)n1 [Decitabine] (partner 2 µM)
Summary of the method: as §1

[4] = compound: O=C(CCCCCCNC(=O)c1cnc(N(c2ccccc2)c2ccccc2)nc1)NO [Ricolinostat] + C[C@]1(O)C[C@@H](c2nc(-c3ccc4ccc(-c5ccccc5)nc4c3)c3c(N)nccn32)C1 [Linsitinib] (partner 1 µM)
Summary of the method: as §1

Cell Line | relative viability ([1]; first compound 0.08 µM) | relative viability ([1]; first compound 0.253 µM) | relative viability ([1]; first compound 0.8 µM) | relative viability ([1]; first compound 2.53 µM) | relative viability ([1]; first compound 8 µM) | relative viability ([2]; first compound 0.08 µM) | relative viability ([2]; first compound 0.253 µM) | relative viability ([2]; first compound 0.8 µM) | relative viability ([2]; first compound 2.53 µM) | relative viability ([2]; first compound 8 µM) | relative viability ([3]; first compound 0.08 µM) | relative viability ([3]; first compound 0.253 µM) | relative viability ([3]; first compound 0.8 µM) | relative viability ([3]; first compound 2.53 µM) | relative viability ([4]; first compound 0.08 µM) | relative viability ([4]; first compound 0.253 µM) | relative viability ([4]; first compound 0.8 µM) | relative viability ([4]; first compound 2.53 µM)
NCI-H2405 | 0.609 | 0.627 | 0.664 | 0.658 | 0.589 | 0.718 | 0.797 | 0.733 | 0.725 | 0.704 | 0.671 | 0.749 | 0.804 | 0.797 | 0.515 | 0.93 | 1.05 | 1.1
NCI-H1915 | 0.575 | 0.601 | 0.63 | 0.472 | 0.619 | 0.428 | 0.484 | – | 0.491 | 0.382 | 0.276 | 0.264 | 0.245 | 0.238 | 1.01 | 1.04 | 1.02 | 1.01
NCI-H322M | 0.541 | 0.515 | 0.551 | 0.507 | 0.567 | 0.487 | 0.426 | 0.487 | 0.497 | 0.444 | 0.616 | 0.708 | 0.721 | 0.754 | – | 0.865 | 1.01 | 0.968
LK-2 | 0.212 | 0.246 | 0.216 | 0.225 | 0.237 | – | 0.152 | 0.149 | 0.198 | 0.198 | 0.268 | 0.364 | 0.24 | 0.212 | 0.629 | 0.645 | 0.613 | 0.524
LXF-289 | 0.817 | 0.809 | 0.756 | 0.754 | 0.757 | 0.179 | 0.173 | 0.201 | 0.179 | 0.191 | 0.407 | 0.366 | 0.384 | 0.347 | 0.93 | 0.956 | 0.966 | 0.962
PC-3 [JPC-3] | 0.756 | 0.775 | 0.788 | 0.751 | 0.806 | 0.606 | 0.401 | 0.928 | 0.876 | 0.716 | 0.766 | 0.736 | 0.757 | 0.758 | 0.894 | 0.925 | 0.9 | 0.793
BEN | 0.293 | 0.271 | 0.276 | 0.287 | 0.296 | 0.477 | 0.507 | 0.747 | 0.75 | 0.541 | 0.578 | 0.78 | 0.567 | 0.581 | 0.795 | 0.751 | 0.953 | 0.592
NCI-H1355 | 0.377 | 0.427 | 0.385 | 0.314 | 0.331 | 0.478 | 0.516 | 0.547 | 0.518 | 0.476 | 0.332 | 0.331 | 0.36 | 0.328 | – | 0.79 | 0.735 | 0.716
NCI-H441 | 0.58 | 0.698 | 0.576 | 0.728 | 0.665 | 0.801 | 0.855 | 0.815 | 0.61 | 0.768 | 0.28 | 0.227 | 0.202 | 0.214 | 0.478 | 0.62 | 0.624 | 0.396
